Source: the supplement of paper PMC10307832

Experiments:
Test in all cases: relative viability (nuclei count vs DMSO), 5 days (fraction); higher = more cells survive
Bortezomib + Pictilisib = compound: CC(C)C[C@H](NC(=O)[C@H](Cc1ccccc1)NC(=O)c1cnccn1)B(O)O [Bortezomib] + CS(=O)(=O)N1CCN(Cc2cc3nc(-c4cccc5[nH]ncc45)nc(N4CCOCC4)c3s2)CC1 [Pictilisib] (partner 1 µM)
Procedure, shortened: (§1)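 For relative viability, nuclei counts in treated wells were divided by those in vehicle wells. Lung cancer cell lines had been pin-tool dosed in 1536-well plates the day after seeding and cultured for 5 days, then fixed and stained in one step (final 0.05% Triton X-100, 1% formaldehyde, 1 ug/ml Hoechst) and imaged at 4×. Doses were one drug alone or a fixed anchor-drug dose plus five library-drug doses (not always all listed) in √10 steps, and values are duplicate-plate medians.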

Bortezomib + AZD7762 = compound: CC(C)C[C@H](NC(=O)[C@H](Cc1ccccc1)NC(=O)c1cnccn1)B(O)O [Bortezomib] + NC(=O)Nc1cc(-c2cccc(F)c2)sc1C(=O)N[C@H]1CCCNC1 [AZD7762] (partner 0.2 µM)
Procedure, shortened: as §1

[1] = compound: CC1=CC(=NN1)NC2=CC(=NC(=N2)/C=C/C3=CC=CC=C3)N4CCN(CC4)C + CC(C)C[C@H](NC(=O)[C@H](Cc1ccccc1)NC(=O)c1cnccn1)B(O)O [Bortezomib] (partner 0.002 µM)
Procedure, shortened: as §1

[2] = compound: CC1=CC(=NN1)NC2=CC(=NC(=N2)/C=C/C3=CC=CC=C3)N4CCN(CC4)C + Nc1nc2[nH]cc(CCc3ccc(C(=O)N[C@@H](CCC(=O)O)C(=O)O)cc3)c2c(=O)[nH]1 [Pemetrexed] (partner 0.2 µM)
Procedure, shortened: as §1

Cell Line | relative viability (Bortezomib + Pictilisib; first compound 0.0002 µM) | relative viability (Bortezomib + Pictilisib; first compound 0.000632 µM) | relative viability (Bortezomib + Pictilisib; first compound 0.002 µM) | relative viability (Bortezomib + Pictilisib; first compound 0.006325 µM) | relative viability (Bortezomib + Pictilisib; first compound 0.02 µM) | relative viability (Bortezomib + AZD7762; first compound 0.0002 µM) | relative viability (Bortezomib + AZD7762; first compound 0.000632 µM) | relative viability (Bortezomib + AZD7762; first compound 0.006325 µM) | relative viability (Bortezomib + AZD7762; first compound 0.02 µM) | relative viability ([1]; first compound 0.08 µM) | relative viability ([1]; first compound 0.8 µM) | relative viability ([1]; first compound 2.53 µM) | relative viability ([1]; first compound 8 µM) | relative viability ([2]; first compound 0.08 µM) | relative viability ([2]; first compound 0.253 µM) | relative viability ([2]; first compound 0.8 µM) | relative viability ([2]; first compound 2.53 µM) | relative viability ([2]; first compound 8 µM) | relative viability (Bortezomib + AZD7762; first compound 0.002 µM) | relative viability ([1]; first compound 0.253 µM)
NCI-H1993 | 0.915 | 0.654 | 0.804 | 0.528 | 0.625 | 0.838 | 0.877 | 0.333 | 0.324 | 1.08 | 1.2 | 0.781 | 0.391 | 0.58 | 0.65 | 0.592 | 0.516 | 0.351 | – | –
ChaGo-K-1 | – | – | 0.707 | 0.29 | 0.207 | 0.847 | 0.716 | 0.691 | 0.164 | 0.994 | 1.15 | 0.285 | 0.241 | 0.259 | 0.264 | 0.27 | 0.227 | 0.17 | 0.886 | 1.2
NCI-H2085 | 0.404 | 0.465 | 0.447 | 0.39 | 0.218 | 1.04 | 0.907 | 0.881 | 0.225 | 1.06 | 1.07 | 0.651 | 0.333 | 0.994 | 0.982 | 0.952 | 0.325 | 0.258 | 1.07 | 1.05
NCI-H1651 | 0.406 | 0.532 | 0.591 | 0.0909 | 0.0929 | 0.451 | 0.474 | 0.507 | 0.131 | 0.946 | 0.865 | 0.876 | 0.448 | 0.39 | 0.58 | 0.571 | 0.518 | 0.223 | 0.485 | 0.892
RERF-LC-KJ | 0.573 | 0.528 | 0.523 | 0.171 | 0.203 | 0.819 | 1.12 | 0.966 | 0.409 | 1.09 | 1.12 | 0.748 | 0.381 | 0.439 | 0.484 | 0.484 | 0.397 | 0.224 | 1.12 | 1.16
NCI-H1755 | 0.441 | 0.322 | 0.43 | 0.171 | 0.137 | 0.442 | 0.425 | 0.287 | 0.2 | 0.913 | 0.956 | 0.63 | 0.195 | 0.428 | 0.381 | 0.462 | 0.32 | 0.294 | 0.508 | 1.01
NCI-H2126 | 0.462 | 0.497 | 0.535 | 0.465 | 0.483 | 1 | 1.01 | 0.942 | 0.516 | 1.07 | 1.19 | 1.09 | 1.02 | 0.696 | 0.649 | 0.633 | 0.569 | 0.426 | 0.968 | 1.14
EPLC-272H | – | – | 0.3 | 0.242 | 0.15 | 0.188 | 0.163 | 0.153 | 0.0636 | 0.952 | 0.956 | 0.531 | 0.279 | 0.329 | 0.363 | 0.342 | 0.104 | 0.136 | 1.2 | 0.914
NCI-H1975 | 0.271 | 0.22 | 0.173 | 0.105 | 0.115 | 0.727 | 0.652 | 0.172 | 0.194 | 0.403 | 0.31 | 0.159 | 0.109 | 0.281 | 0.281 | 0.286 | 0.187 | 0.137 | 0.319 | 0.408
NCI-H3122 | 0.547 | 0.654 | 0.688 | 0.62 | 0.167 | 0.976 | 1.09 | 0.784 | 0.11 | 0.92 | 1.07 | 1.02 | 0.542 | 0.2 | 0.203 | 0.206 | 0.186 | 0.147 | 1.03 | 0.924
BEN | 0.542 | 0.557 | 0.531 | 0.366 | 0.24 | 0.667 | 0.788 | 0.578 | 0.389 | 0.854 | 0.831 | 0.523 | 0.197 | 0.723 | 0.809 | 0.699 | 0.476 | 0.323 | 0.73 | 0.992
NCI-H1915 | 0.808 | 0.941 | 1.14 | 0.685 | 0.144 | 0.751 | 0.726 | 0.163 | 0.0511 | 1.01 | 1.01 | 0.555 | 0.54 | 0.523 | 0.553 | 0.452 | 0.37 | 0.137 | 0.715 | 1.04
NCI-H460 | 0.334 | 0.376 | 0.435 | 0.36 | 0.346 | 0.55 | 0.706 | 0.672 | 0.044 | 1.07 | 1 | 0.0197 | 0.0105 | 0.0607 | 0.0584 | 0.0607 | 0.0513 | 0.0228 | 0.724 | 1.1
LCLC-103H | 0.529 | 0.509 | 0.549 | 0.511 | 0.383 | 0.816 | 0.769 | 0.748 | 0.201 | 0.997 | 1.08 | 0.877 | 0.675 | 0.476 | 0.465 | 0.458 | 0.516 | 0.359 | 0.764 | 1.19
HCC-827 | 0.772 | 0.956 | 0.984 | 0.82 | 0.235 | 0.267 | 0.259 | 0.215 | 0.199 | 1.03 | 0.951 | 0.923 | 0.641 | 0.159 | 0.241 | 0.262 | 0.266 | 0.171 | 0.18 | 1.13
NCI-H322M | 0.49 | – | 0.523 | 0.459 | 0.554 | 0.539 | 0.636 | 0.385 | 0.393 | 1.14 | 1.17 | 1.1 | 0.258 | 0.615 | 0.622 | 0.616 | 0.308 | 0.273 | 0.654 | 1.24
